Experimental data taken from patent publication US7678776B2, “Inclusion complexes of butylphthalide with cyclodextrin or its derivatives, a process for their preparation and the use thereof” (Shijiazhuang Pharma. Group Zhongqi Pharmaceutical …, priority 2002, dated 2010).

Tested on: marginal ear vein of a rabbit
Assay: vascular irritation assay
Type: in vivo
Details: control group, administered into the ear vein for 3 days
Protocol: The vascular irritation assay using inclusion complex of butylphthalide with hydroxypropyl-β-cyclodextrin is provided as follows:
Eight rabbits were divided into two groups, namely, test group and control group. For the test group, 2.45 g/kg of the inclusion complex together with 40 ml of 5% glucose were instilled via the marginal ear vein of a rabbit at the rate of 1.5 ml/min. The administration was once per day and lasted for 3 days. […] The administration lasted for 3 days.

For `CC(=O)O` [10% acetic acid, acetic acid], the “vascular irritation (topical findings)” value was “topical hyperaemia, thickening, and exudation”.
